This test concerns the target NQO1 protein (Homo sapiens, UniProt P15559). In words: NQO1 activity measurement (cytochrome C reduction). To be noted: 5 ng NQO1 protein, 200 μM NADH, 77 μM cytochrome C, 37° C., absorbance 550 nm for 10 minutes. It is filed as biochemical. As to the method:
An enzyme reaction solution included 25 mM Tris/HCl (pH 7.4), 0.14% bovine serum albumin, 200 μM NADH, 77 μM cytochrome C, and 5 ng of NQO1 protein. Enzymatic reaction was initiated by adding NADH and performed at 37° C. In this regard, a reaction rate was measured by observing absorbance, which was increased due to reduction of cytochrome C, at 550 nm for 10 minutes and NQO1 activity was represented as an amount of reduced cytochrome C [nmol cytochrome C reduced/min/μg protein].
Extinction coefficient for cytochrome C:21.1 mmol/L/cm=21.1 μmol/ml/cm
Chain of NQO1 protein (P15559 whole entry, species assumed): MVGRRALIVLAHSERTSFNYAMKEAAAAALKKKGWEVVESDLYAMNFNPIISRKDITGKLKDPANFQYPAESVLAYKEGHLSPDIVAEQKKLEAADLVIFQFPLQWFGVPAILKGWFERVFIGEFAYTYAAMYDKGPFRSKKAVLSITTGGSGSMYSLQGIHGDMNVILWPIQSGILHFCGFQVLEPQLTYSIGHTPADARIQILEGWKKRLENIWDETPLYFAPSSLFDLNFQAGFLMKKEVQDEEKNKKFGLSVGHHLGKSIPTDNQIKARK
Turning to `CC(C)c1nc2c(n1Cc1cccnc1)C(=O)C(=O)c1ccccc1-2` [Example 83], the “NQO1 activity (5 μM, [nmol cytochrome C reduced/min/μg protein])” value is recorded as 162.5 nmol cytochrome C reduced/min/μg protein.

As for `O=C1C(=O)c2[nH]c(-c3cccnc3)nc2-c2ccccc21` [Example 87], the “NQO1 activity (5 μM, [nmol cytochrome C reduced/min/μg protein])” value is 94.7 nmol cytochrome C reduced/min/μg protein.

In the case of `CCOc1nc2c([nH]1)C(=O)C(=O)c1ccccc1-2` [Example 71], the “NQO1 activity (5 μM, [nmol cytochrome C reduced/min/μg protein])” value is 124.7 nmol cytochrome C reduced/min/μg protein.

On to `CCC(CC)c1nc2c([nH]1)C(=O)C(=O)c1ccccc1-2` [Example 77], for which the “NQO1 activity (5 μM, [nmol cytochrome C reduced/min/μg protein])” value was 223.3 nmol cytochrome C reduced/min/μg protein.

Take `CC(C)c1nc2c(n1CCCl)C(=O)C(=O)c1ccccc1-2` [Example 64]: the “NQO1 activity (5 μM, [nmol cytochrome C reduced/min/μg protein])” value was 189.5 nmol cytochrome C reduced/min/μg protein.

For `CCc1nc2c(n1C(C)C)C(=O)C(=O)c1ccccc1-2` [Example 90], the “NQO1 activity (5 μM, [nmol cytochrome C reduced/min/μg protein])” value was 241.3 nmol cytochrome C reduced/min/μg protein.

Turning to `CC(C)c1nc2c(n1C(C)C)C(=O)C(=O)c1ccccc1-2` [Example 85], the “NQO1 activity (5 μM, [nmol cytochrome C reduced/min/μg protein])” value is given as 135.4 nmol cytochrome C reduced/min/μg protein.

Consider `Cc1cc(F)ccc1N(Cc1nc2c([nH]1)C(=O)C(=O)c1ccccc1-2)C(=O)OC(C)(C)C` [Example 52], for which the “NQO1 activity (5 μM, [nmol cytochrome C reduced/min/μg protein])” value is recorded as 60.3 nmol cytochrome C reduced/min/μg protein.

Take `CCc1nc2c(n1CC)C(=O)C(=O)c1ccccc1-2` [Example 86]: the “NQO1 activity (5 μM, [nmol cytochrome C reduced/min/μg protein])” value is 220.0 nmol cytochrome C reduced/min/μg protein.

In the case of `O=C1C(=O)c2[nH]c(N3CCOCC3)nc2-c2ccccc21` [Example 67, 2-morpholino-3H-naphtho[2,1-d]imidazole-4,5-dione], the “NQO1 activity (5 μM, [nmol cytochrome C reduced/min/μg protein])” value was 143.1 nmol cytochrome C reduced/min/μg protein.

Consider `CC(C)c1nc2c(n1CCN1CCOCC1)C(=O)C(=O)c1ccccc1-2` [Example 66], for which the “NQO1 activity (5 μM, [nmol cytochrome C reduced/min/μg protein])” value is on record as 56.0 nmol cytochrome C reduced/min/μg protein.

With `CC(c1nc2c([nH]1)C(=O)C(=O)c1ccccc1-2)N1CCOCC1` (stereo not drawn) [Example 61], the “NQO1 activity (5 μM, [nmol cytochrome C reduced/min/μg protein])” value is 204.1 nmol cytochrome C reduced/min/μg protein.

For `CN1CCN(c2nc3c([nH]2)C(=O)C(=O)c2ccccc2-3)CC1` [Example 75, 2-(4-methylpiperazin-1-yl)-3H-naphtho[2,1-d]imidazole-4,5-dione], the “NQO1 activity (5 μM, [nmol cytochrome C reduced/min/μg protein])” value is given as 26.9 nmol cytochrome C reduced/min/μg protein.

As for `CC(c1nc2c([nH]1)C(=O)C(=O)c1ccccc1-2)N1CCCC1` (stereo not drawn) [Example 65], the “NQO1 activity (5 μM, [nmol cytochrome C reduced/min/μg protein])” value was 93.5 nmol cytochrome C reduced/min/μg protein.

In the case of `CC(C)c1nc2c(n1CCN(C)C)C(=O)C(=O)c1ccccc1-2` [Example 72], the “NQO1 activity (5 μM, [nmol cytochrome C reduced/min/μg protein])” value is on record as 51.0 nmol cytochrome C reduced/min/μg protein.

On to `CC(C)(O)c1nc2c([nH]1)C(=O)C(=O)c1ccccc1-2` [Example 76], for which the “NQO1 activity (5 μM, [nmol cytochrome C reduced/min/μg protein])” value is on record as 183.5 nmol cytochrome C reduced/min/μg protein.

Regarding `CCc1nc2c(n1C(C)C)C(=O)C(=O)c1cc(F)ccc1-2` [Example 89], the “NQO1 activity (5 μM, [nmol cytochrome C reduced/min/μg protein])” value was 145.0 nmol cytochrome C reduced/min/μg protein.

As for `CC(C)c1nc2c(n1Cc1ccccn1)C(=O)C(=O)c1ccccc1-2` [Example 84], the “NQO1 activity (5 μM, [nmol cytochrome C reduced/min/μg protein])” value is listed as 172.0 nmol cytochrome C reduced/min/μg protein.

`CN(C)c1nc2c([nH]1)C(=O)C(=O)c1ccccc1-2` [Example 62, 2-(dimethylamino)-3H-naphtho[2,1-d]imidazole-4,5-dione]: the “NQO1 activity (5 μM, [nmol cytochrome C reduced/min/μg protein])” value was 113.3 nmol cytochrome C reduced/min/μg protein.

In the case of `CC(c1nc2c([nH]1)C(=O)C(=O)c1ccccc1-2)N(C)C` (stereo not drawn) [Example 60], the “NQO1 activity (5 μM, [nmol cytochrome C reduced/min/μg protein])” value is on record as 140.1 nmol cytochrome C reduced/min/μg protein.

Regarding `CN(C)Cc1nc2c([nH]1)C(=O)C(=O)c1ccccc1-2` [Example 59], the “NQO1 activity (5 μM, [nmol cytochrome C reduced/min/μg protein])” value is 149.3 nmol cytochrome C reduced/min/μg protein.

Regarding `O=C1C(=O)c2[nH]c(-c3nc4c([nH]3)C(=O)C(=O)c3ccccc3-4)nc2-c2ccccc21` [Example 92], the “NQO1 activity (5 μM, [nmol cytochrome C reduced/min/μg protein])” value is 186.8 nmol cytochrome C reduced/min/μg protein.

On to `CC(C)c1nc2c(n1Cc1ccncc1)C(=O)C(=O)c1ccccc1-2` [Example 81], for which the “NQO1 activity (5 μM, [nmol cytochrome C reduced/min/μg protein])” value is recorded as 169.4 nmol cytochrome C reduced/min/μg protein.

For `CCOc1nc2c(n1C)C(=O)C(=O)c1ccccc1-2` [Example 74], the “NQO1 activity (5 μM, [nmol cytochrome C reduced/min/μg protein])” value was 193.5 nmol cytochrome C reduced/min/μg protein.

Regarding `O=C1C(=O)c2[nH]c(CCc3ccc(F)cc3)nc2-c2ccccc21` [Example 54], the “NQO1 activity (5 μM, [nmol cytochrome C reduced/min/μg protein])” value was 126.9 nmol cytochrome C reduced/min/μg protein.

As to `O=C1C(=O)c2[nH]c(N3CCCC3)nc2-c2ccccc21` [Example 63, 2-(pyrrolidin-1-yl)-3H-naphtho[2,1-d]imidazole-4,5-dione], the “NQO1 activity (5 μM, [nmol cytochrome C reduced/min/μg protein])” value is on record as 40.3 nmol cytochrome C reduced/min/μg protein.

In the case of `CC(C)c1nc2c(n1CCO)C(=O)C(=O)c1ccccc1-2` [Example 68, 3-(2-hydroxyethyl)-2-isopropyl-3H-naphtho[2,1-d]imidazole-4,5-dione], the “NQO1 activity (5 μM, [nmol cytochrome C reduced/min/μg protein])” value is reported as 143.0 nmol cytochrome C reduced/min/μg protein.

As to `CC(O)c1nc2c(n1C(C)C)C(=O)C(=O)c1ccccc1-2` (stereo not drawn) [Example 91], the “NQO1 activity (5 μM, [nmol cytochrome C reduced/min/μg protein])” value is 206.9 nmol cytochrome C reduced/min/μg protein.

For the compound `CC(C)c1nc2c([nH]1)C(=O)C(=O)c1cc(NC(=O)C3CC3)ccc1-2` [Example 20], the “NQO1 activity (5 μM, [nmol cytochrome C reduced/min/μg protein])” value is given as 6.4 nmol cytochrome C reduced/min/μg protein.

Regarding `O=C1C(=O)c2[nH]c(COc3ccc(F)cc3)nc2-c2ccccc21` [Example 79], the “NQO1 activity (5 μM, [nmol cytochrome C reduced/min/μg protein])” value was 96.9 nmol cytochrome C reduced/min/μg protein.

For the compound `O=C1C(=O)c2[nH]c(C3CCCO3)nc2-c2ccccc21` (stereo not drawn) [Example 73], the “NQO1 activity (5 μM, [nmol cytochrome C reduced/min/μg protein])” value is 180.8 nmol cytochrome C reduced/min/μg protein.

Take `Cc1cc(F)ccc1NCc1nc2c([nH]1)C(=O)C(=O)c1ccccc1-2` [Example 53]: the “NQO1 activity (5 μM, [nmol cytochrome C reduced/min/μg protein])” value was 112.6 nmol cytochrome C reduced/min/μg protein.

In the case of `O=C1C(=O)c2[nH]c(Cl)nc2-c2ccccc21` [Example 70, 2-chloro-3H-naphtho[2,1-d]imidazole-4,5-dione], the “NQO1 activity (5 μM, [nmol cytochrome C reduced/min/μg protein])” value is on record as 83.9 nmol cytochrome C reduced/min/μg protein.

For the compound `CC(C)c1nc2c(n1Cn1c(C(C)C)nc3c1C(=O)C(=O)c1ccccc1-3)C(=O)C(=O)c1ccccc1-2` [Example 69], the “NQO1 activity (5 μM, [nmol cytochrome C reduced/min/μg protein])” value is recorded as 160.5 nmol cytochrome C reduced/min/μg protein.

In the case of `Cc1cc(F)ccc1OCc1nc2c([nH]1)C(=O)C(=O)c1ccccc1-2` [Example 50], the “NQO1 activity (5 μM, [nmol cytochrome C reduced/min/μg protein])” value is given as 100.6 nmol cytochrome C reduced/min/μg protein.

Consider `CCc1nc2c(n1CC)C(=O)C(=O)c1cc(F)ccc1-2` [Example 88], for which the “NQO1 activity (5 μM, [nmol cytochrome C reduced/min/μg protein])” value is listed as 187.4 nmol cytochrome C reduced/min/μg protein.

The record behind these values is patent US10766882B2, “1,2-naphthoquinone based derivative and method of preparing the same” (YUNGJIN PHARM. CO., LTD., priority 2013, dated 2020).
